Laboratory results: publication PMC7150989 (Viruses, 2020)
Where two headings read alike, the source gives them in different places.

Tests used:
H5N1 virus = experiment: microbe, parasite or virus in culture; type: cell-based, H5N1 avian influenza virus; settings: Influenza A virus
MDCK cells = settings: dog
HA protein = HA protein (Influenza A virus, UniProt Q9Q0U6); experiment: biochemical; type: binding, H5N1 virus
VSVG pseudovirus = experiment: microbe, parasite or virus in culture; type: cell-based, vesicular stomatitis virus (VSVG); settings: for inhibition at 1.56 µM / inhibition at 3.13 µM / inhibition at 6.25 µM / inhibition at 12.5 µM / inhibition at 25 µM / inhibition at 50 µM / inhibition at 100 µM / inhibition at 200 µM: Pseudovirus, MDCK, 48 h, read-out: inhibitory rates, VSVG pseudovirus group
[1] = tested on: A/Duck/Guangdong/212/2004 (H5N1) virus; experiment: microbe, parasite or virus in culture; type: cell-based, H5N1 avian influenza virus
H5N1 virus neuraminidase = H5N1 virus neuraminidase (Influenza A virus, UniProt Q9Q0U7); experiment: biochemical; settings: for inhibition at 6.25 µM / inhibition at 12.5 µM / inhibition at 25 µM / inhibition at 50 µM / inhibition at 100 µM / inhibition at 200 µM / inhibition at 400 µM: read-out: The neuraminidase inhibitory rate (%)
[2] = tested on: H5N1 virus HA1 (hemagglutination of chicken erythrocytes)
[3] = tested on: wild-type A/Thailand/kan353/2004 (H5N1) pseudo-typed virus; experiment: microbe, parasite or virus in culture; type: cell-based, H5N1 pseudovirus; settings: Influenza A virus, H5N1, MDCK; for inhibition at 1.56 µM / inhibition at 3.13 µM / inhibition at 6.25 µM / inhibition at 12.5 µM / inhibition at 25 µM / inhibition at 50 µM / inhibition at 100 µM / inhibition at 200 µM: 48 h, read-out: inhibitory rates against pseudotyped virus, Wildtype Strain; for IC50: read-out: IC50 against H5N1 pseudovirus
[4] = tested on: A/Vietnam/1203/2004(H5N1) and A/Goose/Qinghai/59/05(H5N1) pseudotyped viral entry; settings: read-out: IC50 against pseudotyped viral entry; cited from earlier work
in vitro = settings: dog
[5] = H5N1, read-out: inhibition rate of viral plaques forming
[6] = Influenza A virus, H5N1, MDCK, read-out: Inhibition rates to H5N1 virus (%)

Sequence of H5N1 virus neuraminidase (Q9Q0U7 whole entry, looked up): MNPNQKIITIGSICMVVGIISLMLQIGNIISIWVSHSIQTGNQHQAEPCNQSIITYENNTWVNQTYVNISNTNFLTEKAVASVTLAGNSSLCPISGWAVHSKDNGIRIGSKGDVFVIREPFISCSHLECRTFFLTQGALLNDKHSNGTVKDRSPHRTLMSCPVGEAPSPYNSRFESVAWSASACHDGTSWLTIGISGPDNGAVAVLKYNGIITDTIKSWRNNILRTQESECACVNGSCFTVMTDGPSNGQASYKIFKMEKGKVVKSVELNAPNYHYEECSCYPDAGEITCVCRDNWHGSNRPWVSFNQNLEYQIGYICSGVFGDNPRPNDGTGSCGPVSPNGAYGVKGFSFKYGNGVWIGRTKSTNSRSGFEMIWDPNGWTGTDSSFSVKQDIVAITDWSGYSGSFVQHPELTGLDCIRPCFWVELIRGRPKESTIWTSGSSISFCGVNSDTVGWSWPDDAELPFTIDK
Sequence of HA protein (Q9Q0U6 17-568 limits assumed): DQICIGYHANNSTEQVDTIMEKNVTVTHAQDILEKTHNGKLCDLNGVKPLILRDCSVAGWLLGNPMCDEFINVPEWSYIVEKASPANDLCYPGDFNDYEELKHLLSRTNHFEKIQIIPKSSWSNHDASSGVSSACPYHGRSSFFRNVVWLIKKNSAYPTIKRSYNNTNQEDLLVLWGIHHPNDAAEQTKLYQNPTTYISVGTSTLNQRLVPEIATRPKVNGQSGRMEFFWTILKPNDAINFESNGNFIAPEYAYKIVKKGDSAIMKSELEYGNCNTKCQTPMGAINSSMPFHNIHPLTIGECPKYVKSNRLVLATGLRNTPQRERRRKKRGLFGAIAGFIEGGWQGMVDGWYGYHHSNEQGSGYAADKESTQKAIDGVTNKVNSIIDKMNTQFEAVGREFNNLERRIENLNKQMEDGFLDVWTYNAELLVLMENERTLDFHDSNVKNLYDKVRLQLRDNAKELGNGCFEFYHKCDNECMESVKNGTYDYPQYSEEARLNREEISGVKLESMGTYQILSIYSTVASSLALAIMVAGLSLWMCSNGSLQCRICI

CC1CCC2(OC1)OC1CC3C4CC(=O)C5CC(OC6OC(CO)C(OC7OC(C)C(O)C(O)C7O)C(O)C6OC6OC(C)C(O)C(O)C6O)CCC5(C)C4CCC3(C)C1C2C (stereo not drawn) [XC-27-1]
inhibition at 40 µM (H5N1 virus; [5]): 95%
CC50 (MDCK cells): 1247 ± 1.16 µM
in vitro cytotoxicity decreased (fold) than that of XC-27-2 (MDCK cells): 16 fold
Kd (HA protein): 257 µM
inhibitory effects on the VSVG pseudovirus (VSVG pseudovirus): no inhibitory effects
inhibition at 1.56 µM (VSVG pseudovirus): -0.74 ± 6.43%
inhibition at 3.13 µM (VSVG pseudovirus): -1.52 ± 4.89%
inhibition at 6.25 µM (VSVG pseudovirus): -4.3 ± 3.47%
inhibition at 12.5 µM (VSVG pseudovirus): 3.54 ± 4.16%
inhibition at 25 µM (VSVG pseudovirus): 0.83 ± 6.72%
inhibition at 50 µM (VSVG pseudovirus): 3.97 ± 5.2%
inhibition at 100 µM (VSVG pseudovirus): 4.8 ± 4.97%
inhibition at 200 µM (VSVG pseudovirus): 4.75 ± 3.18%
IC50 [1]: 16.8 ± 1.45 µM
Inhibition rates to H5N1 virus (%) ([1]; 0.39 µM): 27.54±1.11%
Inhibition rates to H5N1 virus (%) ([1]; 0.78 µM): 31.73±6.04%
Inhibition rates to H5N1 virus (%) ([1]; 1.56 µM): 37.01±4.82%
Inhibition rates to H5N1 virus (%) ([1]; 3.13 µM): 40.85±8.91%
Inhibition rates to H5N1 virus (%) ([1]; 6.25 µM): 46.13±10.59%
Inhibition rates to H5N1 virus (%) ([1]; 12.5 µM): 55.30±3.74%
Inhibition rates to H5N1 virus (%) ([1]; 25 µM): 75.06±10.43%
Inhibition rates to H5N1 virus (%) ([1]; 50 µM): 85.71±5.06%
inhibition activity on NA (in words) (H5N1 virus neuraminidase): very low inhibition activity
inhibition at 6.25 µM (H5N1 virus neuraminidase): 6.57 ± 6.89%
inhibition at 12.5 µM (H5N1 virus neuraminidase): 0.18 ± 8.13%
inhibition at 25 µM (H5N1 virus neuraminidase): -6.95 ± 12.7%
inhibition at 50 µM (H5N1 virus neuraminidase): 5.37 ± 14.4%
inhibition at 100 µM (H5N1 virus neuraminidase): 6.45 ± 14.9%
inhibition at 200 µM (H5N1 virus neuraminidase): 7.07 ± 9.83%
inhibition at 400 µM (H5N1 virus neuraminidase): 24.5 ± 8.38%
inhibitory effects to the hemagglutination reaction induced by the virus HA1 [2]: had not produced inhibitory effects
inhibition at 1.56 µM [3]: 33.6 ± 5.25%
inhibition at 3.13 µM [3]: 38 ± 3.24%
inhibition at 6.25 µM [3]: 40.7 ± 10.9%
inhibition at 12.5 µM [3]: 49 ± 11.7%
inhibition at 25 µM [3]: 60.7 ± 3.73%
inhibition at 50 µM [3]: 64.8 ± 2.96%
inhibition at 100 µM [3]: 78 ± 2.16%
inhibition at 200 µM [3]: 95.3 ± 3.6%
IC50 [3]: 12.8 ± 7.01 µM

CCC(CC)[C@H](NC(C)=O)[C@@H]1[C@H](O)[C@@H](C(=O)O)C[C@H]1N=C(N)N [peramivir, reference compound]
IC50 (H5N1 virus neuraminidase; read-out: IC50 against H5N1 viral NA): 0.000668 µM

CC1CCC2(OC1)OC1CC3C4CC(O)C5CC(OC6OC(CO)C(OC7OC(C)C(O)C(O)C7O)C(O)C6OC6OC(C)C(O)C(O)C6O)CCC5(C)C4CCC3(C)C1C2C (stereo not drawn) [chlorogenin 3-O-β-chacotrioside]
IC50 [4]: 7.22 to 9.25 µM

CC1CCC2(OC1)OC1CC3C4CC(O)C5CC(OC6OC(CO)C(OC7OC(C)C(O)C(O)C7O)C(O)C6OC6OC(C)C(O)C(O)C6O)CCC5(C)C4CCC3(C)C1C2C (stereo not drawn) [XC-27-2]
CC50 (in vitro): 73.8 ± 0.79 µM
inhibition at 40 µM (H5N1 virus; H5N1, read-out: inhibition percentage of H5N1 viral plaques forming amounts): 91%
inhibition at 40 µM (H5N1 virus; [5]): 96%
Kd (HA protein): 367 µM
inhibitory effects on the VSVG pseudovirus (VSVG pseudovirus): no inhibitory effects
inhibition at 1.56 µM (VSVG pseudovirus): 2.62 ± 4.57%
inhibition at 3.13 µM (VSVG pseudovirus): -3.39 ± 4.64%
inhibition at 6.25 µM (VSVG pseudovirus): 0.17 ± 5.78%
inhibition at 12.5 µM (VSVG pseudovirus): 1.54 ± 13.9%
inhibition at 25 µM (VSVG pseudovirus): 0.46 ± 0.94%
inhibition at 50 µM (VSVG pseudovirus): 0.34 ± 6.12%
inhibition at 100 µM (VSVG pseudovirus): 6.84 ± 5.83%
inhibition at 200 µM (VSVG pseudovirus): 6.52 ± 2.16%
IC50 ([1]; Influenza A virus, H5N1, MDCK): 12.5 ± 2.27 µM
inhibition at 0.39 µM [1, 6]: 31.9 ± 4.33%
inhibition at 0.78 µM [1, 6]: 38.6 ± 0.68%
inhibition at 1.56 µM [1, 6]: 41.5 ± 2.01%
inhibition at 3.13 µM [1, 6]: 47.1 ± 5.94%
inhibition at 6.25 µM [1, 6]: 55.6 ± 3.97%
inhibition at 12.5 µM [1, 6]: 62.2 ± 0.99%
inhibition at 25 µM [1, 6]: 71 ± 4.31%
inhibition at 50 µM [1, 6]: 96.8 ± 1.51%
inhibition activity on NA (in words) (H5N1 virus neuraminidase): very low inhibition activity
inhibition at 6.25 µM (H5N1 virus neuraminidase): 1.09 ± 2.99%
inhibition at 12.5 µM (H5N1 virus neuraminidase): 5.75 ± 4.41%
inhibition at 25 µM (H5N1 virus neuraminidase): 2.89 ± 8.39%
inhibition at 50 µM (H5N1 virus neuraminidase): 10.5 ± 16.5%
inhibition at 100 µM (H5N1 virus neuraminidase): 13.3 ± 4.06%
inhibition at 200 µM (H5N1 virus neuraminidase): 15.6 ± 2.97%
inhibition at 400 µM (H5N1 virus neuraminidase): 32 ± 10%
inhibitory effects to the hemagglutination reaction induced by the virus HA1 [2]: had not produced inhibitory effects
inhibition at 1.56 µM [3]: 26.8 ± 9.96%
inhibition at 3.13 µM [3]: 30.1 ± 12.2%
inhibition at 6.25 µM [3]: 35.8 ± 12.1%
inhibition at 12.5 µM [3]: 46.3 ± 6.37%
inhibition at 25 µM [3]: 47.4 ± 13.2%
inhibition at 50 µM [3]: 64.9 ± 12.5%
inhibition at 100 µM [3]: 90.5 ± 2.35%
inhibition at 200 µM [3]: 95.98 ± 0.68%
IC50 [3]: 18.5 ± 1.82 µM

CC1CCC2(OC1)OC1CC3C4CC(=O)C5CC(OC6OC(CO)C(OC7OC(C)C(O)C(O)C7O)C(O)C6OC6OC(C)C(O)C(O)C6O)CCC5(C)C4CCC3(C)C1C2C (stereo not drawn) [UA-Nu-ph-5]
CC50 (MDCK cells): 127 ± 1.7 µM
Inhibition rates to H5N1 virus (%) ([1]; 0.39 µM): 0%
Inhibition rates to H5N1 virus (%) ([1]; 0.78 µM): 10.75±2.01%
Inhibition rates to H5N1 virus (%) ([1]; 1.56 µM): 10.78±3.11%
Inhibition rates to H5N1 virus (%) ([1]; 3.13 µM): 16.51±6.34%
Inhibition rates to H5N1 virus (%) ([1]; 50 µM): 65.30±4.73%
IC50 ([1]; Influenza A virus, H5N1, MDCK): 15.6 ± 2.4 µM
inhibition at 6.25 µM [1, 6]: 35 ± 10.8%
inhibition at 12.5 µM [1, 6]: 47.1 ± 1.63%
inhibition at 25 µM [1, 6]: 61.7 ± 5.4%
inhibition at 100 µM [1, 6]: 79.1 ± 3.27%

NC(=O)c1ncn([C@@H]2O[C@H](CO)[C@@H](O)[C@H]2O)n1 [ribavirin, reference compound]
CC50 (in vitro): 132 ± 0.87 µM
IC50 ([1]; Influenza A virus, H5N1, MDCK): 37.2 ± 1.6 µM

CCOC(=O)C1=C[C@@H](OC(CC)CC)[C@H](NC(C)=O)[C@@H](N)C1 [Osetamivir, reference compound]
IC50 (H5N1 virus neuraminidase): 0.00887 µM
